Data from patent publication US9808434B2, “Compound for treating cancer and diabetes” (CITY OF HOPE, priority 2011, dated 2017).

Experiments:
PBT-017 = assay: Glioma ATP viability assay, PBT-017; type: cell-based; conditions: 72 h, Table 2
Method: (§1) Cells of each cell line (U251, U87, PBT-017, PBT018, PBT003 and PBT028) were treated with various concentrations (0˜100 μM) of COH-SR4 for 72 hours. Cell viabilities were determined by ATP viability assays. Data were represented as a ratio to vehicle (DMSO) control, and plotted as mean±SEM (n=12) obtained from 2˜3 experiments (FIG. 34A).
as §1, with “(U87, U251,” for “(U251, U87, PBT-017, PBT018,”, “PVT-017)” for “PBT028)”, “2-3” for “2˜3”, “34B).” for “34A).”
(§2) Cells of each cell line were treated with various concentrations (0˜100 μM) of COH-SR4 or various concentrations (0˜1000 μM) of TMZ for 72 hours. Cell viabilities were determined by ATP viability assays. Data were represented as a ratio to untreated cells as control, and plotted as mean±SEM (n=12) obtained from 2˜3 experiments (FIGS. 43A-B).

U251 = assay: Glioma ATP viability assay, U251; type: cell-based; conditions: Homo sapiens, U-251, 72 h, Table 2
Method: as §1
as §1, with “(U87, U251,” for “(U251, U87, PBT-017, PBT018,”, “PVT-017)” for “PBT028)”, “2-3” for “2˜3”, “34B).” for “34A).”
as §2

GSTP = target: T1, GSTP (Homo sapiens, UniProt P09211); assay: GSTP activity towards CDNB in the presence of GSR4; type: biochemical; conditions: 93977 at 0 μM
T1 construct: made in house; host or cells: E. coli BL21 (DE3)
Method: Furthermore, GSTP activities towards CDNB were assessed in the presence of various concentration of GSR4. The GSTP activities decreased when the concentration of GSR4 increased (Table 3). Thus, […] was a product inhibitor of GSTP with an estimated Ki of less than 5 μM.

[1] = tested on: HMLE breast cancer cell line; assay: HMLE viability, DIMSCAN assay; type: cell-based, human; conditions: 3 days, 2-50 μM
Method: The effects of COH-SR compounds on breast cancer cells were investigated. Cells from 4T1 or HMLE breast cancer cell line were seeded in 96-well plates (about 2000 cells/well), allowed to proliferate for one day, treated with a COH-SR compound, doxorubicin, paclitaxel, cisplatin, or nothing (control) at a specific dose (3 wells for each treatment) and assayed for cell viability 3 days after using DIMSCAN assay. COH-SR3, COH-SR4, COH-SR9, doxorubicin, paclitaxel, and cisplatin were used at a dosage of 40 nM, 200 nM, 1 μM, 2 μM, 10 μM, or 50 μM for 4T1 breast cancer cell lines. COH-SR14 was used at a dosage of 40 nM, 200 nM, 1 μM, 2 μM, or 10 μM for 4T1 breast cancer cell lines. COH-SR3, COH-SR4, COH-SR9, doxorubicin, paclitaxel, and cisplatin were used at a dosage of 2 μM, 10 μM, or 50 μM for HMLE breast cancer cell lines. COH-SR14 was used at a dosage of 2 μM, or 10 μM for HMLE breast cancer cell lines.

[2] = tested on: NCI-60 human tumor cell lines; assay: NCI-60 DTP Human Tumor Cell Line Drug Screening; type: cell-based; conditions: leukemia, NSCLC, colon, CNS, melanoma, ovarian, renal, prostate, breast lines
Text: Moreover, preliminary data from the NCI-60 DTP Human Tumor Cell Line Drug Screening (http://dtp.nci.nih.gov/branches/btb/ivclsp.html) further confirmed the observations on these COH-SR compounds. […] A value of 100 meant no growth inhibition. A value of 20 meant 80% growth inhibition. A value of 0 meant no net growth over the course of the experiment. A value of −40 meant 40% lethality. A value of −100 meant all cells were dead.

HL-60 cells [3] = assay: Differentiation of HL-60 cells (Giemsa-Wright, NBT, CD11b/CD14); type: cell-based, human; conditions: 48 hours, 2-10 μM
Method: HL-60 cells were incubated with a test compound at various concentrations (2˜10 μM), DMSO, or without any test compound for 48 hours, and then examined for morphologic changes by Giemsa-Wright stain. The results were observed microscopically and shown in FIG. 13 at a magnification of ×400. […] Such results were similar to cells treated with DMSO or all-trans retinoic acid (ATRA), wherein DMSO or ATRA terminally differentiated HL-60 cells into myeloid cells (FIG. 13).
HL-60 cells (2.5×10^5) were treated with or without a test compound for 48 hours and then stained with NBT, wherein positively-stained cells appeared as purple black (FIG. 14A). NBT positive cells were counted and the overall percentage was calculated based on 200 total cells counted for each treatment. Three˜four independent experiments were carried out, and data are shown as mean±SE (FIG. 14B). This measurement of “oxidative burst” by the NBT assay is a well-known and extensively tested functional marker of HL-60 cell differentiation.
HL-60 cells (2.5×10^5) were incubated with a test compound (COH-SR4 or COH-SR9) at a concentration of 0.5 μM, 1 μM, 2 μM, or 3 μM, or without any COH-SR compound for 48 hours and then assessed for the surface expression of CD11b (FIG. 14C) and CD14 (FIG. 14D) by flow cytometry, respectively. Three-four independent experiments were carried out, and data are shown as mean±SE (FIGS. 14C and 14D).

[4] = tested on: undifferentiated 3T3-L1 cells; assay: Preadipocyte viability, MTT assay; type: cell-based, mouse; conditions: 3 days, 2.5-25 μM
Method: Undifferentiated 3T3-LI cells were treated with COH-SR2, COH-SR3, COH-SR4, COH-SR7, LR23 or LR59 for 3 days at a concentration of 2.5 μM, 5 μM, 10 μM, 15 μM, 20 μM, or 25 μM. The cell viability for each treatment was determined by MTT assay (FIG. 7).

3T3-L1 cells [5] = assay: Adipocyte differentiation, Oil Red O staining; type: cell-based, mouse; conditions: preadipocytes 7 days in differentiating media (DM) + compound
Method: Two-day post-confluent 3T3-L1 preadipocyte cells were allowed to differentiate for 7 days in the presence of nothing, DM only, DM+ a test compound (COH-SR1, COH-SR2, COH-SR3, COH-SR4, COH-SR7, LR23 or LR59), or DM+ a positive control (TSA, C75, or Apicidin).
(§3) 3T3-L1 preadipocytes cells were treated with differentiating media (DM) with COH-SR4 (1 μM, 3 μM, or 5 μM) or without for 7 days. […] As used in FIG. 9C, U=undifferentiated, D=differentiated with cocktail media.

3T3-L1 cells [6] = assay: Intracellular triglyceride contents, AdipoRed Assay; type: cell-based, mouse; conditions: 7 days in DM + compound
Method: Intracellular triglyceride contents were measured using AdipoRed Assay™ and the results were shown in relative fluorescence units (RFU) in FIG. 5.
as §3

[7] = tested on: fully differentiated adipocytes; assay: Dedifferentiation of fully differentiated adipocytes, Oil Red O staining; type: cell-based; conditions: differentiated 7 days, treated additional 3 days
Method: Fully differentiated adipocyte cells were differentiated for 7 days and were treated for additional 3 days with DM+ a test compound (COH-SR3, COH-SR7, or LR59), DM+ a positive control (Apicidin, TSA or C75), DM, or nothing (control).

HL-60 cells [8] = assay: HL-60 cell viability, MTT assay
Method: Three independent experiments were carried out with 3 duplications each, and data are shown as mean±SE.

T1 sequence (P09211 whole entry): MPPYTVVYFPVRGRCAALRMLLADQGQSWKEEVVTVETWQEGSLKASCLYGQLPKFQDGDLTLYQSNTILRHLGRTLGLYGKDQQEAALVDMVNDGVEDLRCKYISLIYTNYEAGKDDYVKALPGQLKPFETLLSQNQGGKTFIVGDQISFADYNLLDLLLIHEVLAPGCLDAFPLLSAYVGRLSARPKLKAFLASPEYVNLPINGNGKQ

Cn1nnc2c(C(N)=O)ncn2c1=O [TMZ, temozolomide, reference compound]
IC50 (PBT-017): 13 µM | IC50 (U251): 371 µM

mono-glutationyl-SR4 [GSR4]
GSTP activity towards CDNB (Kcat [s−1]) (GSTP; [GSR4] 5 μM): 36385 s⁻¹ | GSTP activity towards CDNB (Kcat [s−1]) (GSTP; [GSR4] 10 μM): 16115 s⁻¹

O=C(Nc1ccc(Cl)c(Cl)c1)Nc1ccc(Cl)c(Cl)c1 [COH-SR3, 1,3-bis(3,4-dichlorophenyl)urea]
cytotoxic effects compared with doxorubicin, paclitaxel and cisplatin (FIG. 30) [1]: more potent cytotoxic effects | activity in NCI-60 screening [2]: active against | morphologic changes (Giemsa-Wright stain), myeloid differentiation (HL-60 cells [3]): exhibited cytoplasmic vacuolation, reduced nucleus-to-cytoplasmic ratio, and absence of prominent nucleoli | growth of undifferentiated preadipocytes (MTT) [4]: inhibited growth of undifferentiated 3T3-L1 cells | differentiation and accumulation of lipid droplets (Oil Red O staining) (3T3-L1 cells [5]): dose-dependently inhibited differentiation and accumulation of lipid droplets | intracellular triglyceride contents (AdipoRed Assay) (3T3-L1 cells [6]): dose-dependently reduced | dedifferentiation of fully differentiated adipocytes [7]: induced dedifferentiation of fully differentiated adipocytes | cytotoxicity and cell proliferation (HL-60 cells [8]; 48 hours, 1-15 μM): exhibited cytotoxicity and prevented cell proliferation of HL-60 leukemia cells | IC50 (HL-60 cells [8]; Homo sapiens, HL-60, 48 h): < 5 µM
